Results as given in patent US9663478B2, “Benzotriazine oxides as drugs targeting Mycobacterium tuberculosis” (priority 2011, dated 2017).
In brackets after ≈: the same amount, converted by molar mass.

Legend:
in vitro = settings: African green monkey, VERO Tox (CC50)
Mtb H37Rv [1] = test: TB MIC - SRI, resazurin-based microplate assay; format: cell-based, Mycobacterium tuberculosis; settings: Mycobacterium tuberculosis, H37RV, read-out: TB MIC - SRI
Mtb H37Rv [2] = test: TB MIC - ITR (UIC), Institute for Tuberculosis Research; format: cell-based, Mycobacterium tuberculosis; settings: for TB MIC - UIC: Tables P1, P2; for MIC: Mycobacterium tuberculosis, H37RV, Tables 1-4, read-out: TB MIC - ITR
NRP Mtb H37Rv cells = test: Low-oxygen recovery assay (LORA) MIC; format: cell-based, Mycobacterium tuberculosis; settings: for LORA MIC: Tables P1, P2, non-replicating M. tuberculosis; for MIC: Mycobacterium tuberculosis, H37RV, NRP Mtb, Tables 1-4 and text, read-out: LORA MIC - ITR
[3] = system: Salmonella typhimurium tester strain TA100; test: Salmonella/microsome plate incorporation assay (Ames screen), TA100; format: cell-based
From the text: (§1) A liability in developing any bioreductively-activated antimicrobial drug is the potential for mutagenicity. Because the basis for activity of these compounds is the generation of intermediate radical species, undesirable mutagenicity poses a risk, as has been documented for many classes of bioreductive drugs, including the BTO tirapazamine (TPZ).^19,20 The most convenient methodology for assessing the potential to induce genetic damage is to use the plate incorporation method with Salmonella typhimurium strains TA98 and TA100, commonly known as the Ames assay. The Salmonella tester strains have mutations in the histidine operon, a mutation that leads to defective lipopolysaccharide (rfa), and a deletion that covers genes involved in the synthesis of biotin (bio) and in the repair of ultraviolet-induced DNA damage (uvrB).^21,22 These mutations make the strains more permeable to many molecules and increase their susceptibility to the mutagenic effects of these molecules. Given that the hypothesized mechanism of the BTO compounds is to selectively form cytotoxic radical species in bacteria over mammalian cells, a microbial mutagenicity assay is not ideal, but was used to benchmark their activities in this assay. […] Individual plate counts and their means and standard deviations, along with the condition of the background lawn, are presented in SI Table 2.
(§2) Experimental compounds were screened for microbial mutagenicity activity using the plate incorporation method with Salmonella typhimurium tester strains TA98 and TA100, in the presence and absence of an Aroclor 1254-induced rat-liver metabolic activation system containing 10% S9 (MA). The presence of the appropriate genetic characteristics was verified for the strains used in this study. Stock solutions were made by dissolving each test sample in dimethyl sulfoxide (DMSO) at 5 mg/ml. These initial stock concentrations were then serially diluted to achieve dose formulations of 100, 50, 10, 5, 1, 0.5, and 0.1 μg/plate (dosing volume 100 μl). Test plates were compared with the control plates for their revertant count and for the condition of the background bacterial lawn. A test article was considered a mutagen when the mean number of revertant colonies on the test plates exceeds the mean solvent control counts by at least a two-fold margin. Dose relatedness was also taken into account when evaluating a mutagenic response. Cytotoxicity was estimated by several parameters: a substantial decrease in the number of revertant colonies on the test plates, clearing or absence of the background bacterial lawn growth, formation of pinpoint nonrevertant colonies, or complete absence of bacterial growth.

[4] = system: Salmonella typhimurium tester strain TA98; test: Salmonella/microsome plate incorporation assay (Ames screen), TA98; format: cell-based; settings: for Mean revertants per plate: Salmonella typhimurium
From the text: as §1, §2

[5] = TA100, with metabolic activation (10% S9), 2 μg per plate, positive control
[6] = TA100, with metabolic activation (10% S9), 0.1 μg per plate
[7] = TA100, with metabolic activation (10% S9), 0.5 μg per plate
[8] = TA100, with metabolic activation (10% S9), 1 μg per plate
[9] = TA100, with metabolic activation (10% S9), 5 μg per plate
[10] = TA100, with metabolic activation (10% S9), 10 μg per plate
[11] = TA100, with metabolic activation (10% S9), 50 μg per plate
[12] = TA100, with metabolic activation (10% S9), 100 μg per plate
[13] = TA100, without metabolic activation, 0.1 μg per plate
[14] = TA100, without metabolic activation, 0.5 μg per plate
[15] = TA100, without metabolic activation, 1 μg per plate
[16] = TA100, without metabolic activation, 5 μg per plate
[17] = TA100, without metabolic activation, 10 μg per plate
[18] = TA100, without metabolic activation, 50 μg per plate
[19] = TA100, without metabolic activation, 100 μg per plate

Work on C[C@@H](Nc1n[n+]([O-])c2ccccc2[n+]1[O-])C1CCCCC1 (racemic) [SRI-012261] yielded a CC50 at 72 h (in vitro) of 8.9 µg/mL (≈ 30.9 µM), an MIC (Mtb H37Rv [1]; Tables P1-P3) of 1.25 µg/mL (≈ 4.33 µM) and a TB MIC - UIC (Mtb H37Rv [2]) of 0.92 µg/mL. The LORA MIC (NRP Mtb H37Rv cells) was 0.36 µg/mL.

Molecule [O-][n+]1nc(N[C@@H]2C[C@H]3CC[C@@H]2C3)[n+]([O-])c2ccccc21 (racemic) [SRI-012264] has a CC50 at 72 h (in vitro) of 3.4 µg/mL (≈ 12.5 µM), an MIC (Mtb H37Rv [1]; Tables P1-P3) of 0.625 µg/mL (≈ 2.3 µM) and a TB MIC - UIC (Mtb H37Rv [2]) of 0.6 µg/mL. For the same molecule, the LORA MIC (NRP Mtb H37Rv cells) was 0.42 µg/mL.

C[C@@H]1[C@H]2C[C@@H](C[C@H]1Nc1n[n+]([O-])c3ccccc3[n+]1[O-])C2(C)C (racemic) [SRI-012273] gave a CC50 at 72 h (in vitro) of 4.6 µg/mL (≈ 14.6 µM), an MIC (Mtb H37Rv [1]; Tables P1-P3) of 1.25 µg/mL (≈ 3.98 µM) and a TB MIC - UIC (Mtb H37Rv [2]) of 0.48 µg/mL. The LORA MIC (NRP Mtb H37Rv cells) was 0.48 µg/mL.

CC(=O)Nc1cc(/C=C/c2ccc([N+](=O)[O-])o2)ns1 [Cmpd 2] showed a CC50 at 72 h (in vitro) greater than 50 µg/mL, an MIC (Mtb H37Rv [1]; Tables 1-4 and text) of 0.98 µg/mL (≈ 3.51 µM) and an MIC (Mtb H37Rv [2]) of 3.8 µg/mL (≈ 13.6 µM). For the same molecule, the MIC (NRP Mtb H37Rv cells) was 3.7 µg/mL (≈ 13.2 µM).

In the case of Nc1ccc2cc3ccccc3cc2c1 [Compound 2AN], the “Mean revertants per plate” value [3, 5] is reported as 490.0, the Ratio treated/solvent [3, 5] is reported as 2.9 and the Ratio treated/solvent ([4]; TA98, with metabolic activation (10% S9), 2 μg per plate, positive control) is reported as 15.3.

With CCNc1n[n+]([O-])c2cc3c(cc2[n+]1[O-])CCC3 [Compound 15fa, 3-(ethylamino)-7,8-dihydro-6H-indeno[5,6-e][1,2,4]triazine 1,4-dioxide] the “Mean revertants per plate” value [3, 6] was 145.5, the Ratio treated/solvent [3, 6] was 0.9 and the “Mean revertants per plate” value [3, 7] was 148.5. For the same molecule, the Ratio treated/solvent [3, 7] was 0.9, the “Mean revertants per plate” value [3, 8] was 185.0 and the Ratio treated/solvent [3, 8] was 1.1. For the same molecule, the “Mean revertants per plate” value [3, 9] was 207.0, the Ratio treated/solvent [3, 9] was 1.2 and the “Mean revertants per plate” value [3, 10] was 298.5. For the same molecule, the Ratio treated/solvent [3, 10] was 1.8, the “Mean revertants per plate” value [3, 11] was 854.5 and the Ratio treated/solvent [3, 11] was 5.1. The “Mean revertants per plate” value [3, 12] was 1450.0, the Ratio treated/solvent [3, 12] was 8.6 and the “Mean revertants per plate” value [3, 13] was 127.0. For the same molecule, the Ratio treated/solvent [3, 13] was 0.8, the “Mean revertants per plate” value [3, 14] was 137.0 and the Ratio treated/solvent [3, 14] was 0.8. The “Mean revertants per plate” value [3, 15] was 150.5, the Ratio treated/solvent [3, 15] was 0.9 and the “Mean revertants per plate” value [3, 16] was 259.0. For the same molecule, the Ratio treated/solvent [3, 16] was 1.6, the “Mean revertants per plate” value [3, 17] was 299.5 and the Ratio treated/solvent [3, 17] was 1.8. The “Mean revertants per plate” value [3, 18] was 913.5, the Ratio treated/solvent [3, 18] was 5.6 and the “Mean revertants per plate” value [3, 19] was 1268.0. For the same molecule, the Ratio treated/solvent [3, 19] was 7.8, the “number of revertant colonies, TA100” value ([3]; presence and absence of metabolic activation) was “dose-related increases in the number of revertant colonies” and the MIC (Mtb H37Rv [2]) was 0.95 µg/mL (≈ 3.86 µM). For the same molecule, the “number of revertant colonies, TA98” value [4] was “dose-related increases in the number of revertant colonies”, the “Mean revertants per plate” value ([4]; 0.1 μg per plate) was 21.0 and the “Mean revertants per plate” value ([4]; 0.1 μg/plate) was 35.5. The “Mean revertants per plate” value ([4]; 0.5 μg per plate) was 19.0, the “Mean revertants per plate” value ([4]; 0.5 μg/plate) was 36.0 and the “Mean revertants per plate” value ([4]; 1 μg per plate) was 26.0. For the same molecule, the “Mean revertants per plate” value ([4]; 1 μg/plate) was 30.5, the “Mean revertants per plate” value ([4]; 5 μg per plate) was 47.0 and the “Mean revertants per plate” value ([4]; 5 μg/plate) was 37.0. The “Mean revertants per plate” value ([4]; 10 μg per plate) was 52.0, the “Mean revertants per plate” value ([4]; 10 μg/plate) was 45.0 and the “Mean revertants per plate” value ([4]; 50 μg per plate) was 142.5. For the same molecule, the “Mean revertants per plate” value ([4]; 50 μg/plate) was 141.0, the “Mean revertants per plate” value ([4]; 100 μg per plate) was 345.0 and the “Mean revertants per plate” value ([4]; 100 μg/plate) was 215.5. It also gave a Ratio treated/solvent ([4]; TA98, with metabolic activation (10% S9), 0.1 μg per plate) of 1.0, a Ratio treated/solvent ([4]; TA98, with metabolic activation (10% S9), 0.5 μg per plate) of 1.0 and a Ratio treated/solvent ([4]; TA98, with metabolic activation (10% S9), 1 μg per plate) of 0.9. For the same molecule, the Ratio treated/solvent ([4]; TA98, with metabolic activation (10% S9), 5 μg per plate) was 1.0, the Ratio treated/solvent ([4]; TA98, with metabolic activation (10% S9), 10 μg per plate) was 1.5 and the Ratio treated/solvent ([4]; TA98, with metabolic activation (10% S9), 50 μg per plate) was 4.0. The Ratio treated/solvent ([4]; TA98, with metabolic activation (10% S9), 100 μg per plate) was 9.7, the Ratio treated/solvent ([4]; TA98, without metabolic activation, 0.1 μg per plate) was 0.8 and the Ratio treated/solvent ([4]; TA98, without metabolic activation, 0.5 μg per plate) was 0.7. It also gave a Ratio treated/solvent ([4]; TA98, without metabolic activation, 1 μg per plate) of 1.0, a Ratio treated/solvent ([4]; TA98, without metabolic activation, 5 μg per plate) of 1.8 and a Ratio treated/solvent ([4]; TA98, without metabolic activation, 10 μg per plate) of 1.8. The Ratio treated/solvent ([4]; TA98, without metabolic activation, 50 μg per plate) was 5.5, the Ratio treated/solvent ([4]; TA98, without metabolic activation, 100 μg per plate) was 8.5 and the MIC (NRP Mtb H37Rv cells) was 0.83 µg/mL (≈ 3.37 µM).

For [N-]=[N+]=[N-].[Na+] [SA], the “Mean revertants per plate” value [3, 16] was 1620.0 and the Ratio treated/solvent [3, 16] was 10.0.

With [O-][n+]1nc(NC2CC2)[n+]([O-])c2ccccc21 [SRI-012255] the CC50 at 72 h (in vitro) was 20.7 µg/mL (≈ 94.9 µM), the TB MIC - UIC (Mtb H37Rv [2]) was 1.82 µg/mL and the LORA MIC (NRP Mtb H37Rv cells) was 1.76 µg/mL.

For [O-][n+]1nc(NC2CCCCCC2)[n+]([O-])c2ccccc21 [SRI-012256], the CC50 at 72 h (in vitro) was 7.9 µg/mL (≈ 28.8 µM), the TB MIC - UIC (Mtb H37Rv [2]) was 1.64 µg/mL and the LORA MIC (NRP Mtb H37Rv cells) was 0.5 µg/mL.

With CCCC(C)Nc1n[n+]([O-])c2ccccc2[n+]1[O-] (stereo not drawn) [SRI-012258] the CC50 at 72 h (in vitro) was 26.3 µg/mL (≈ 106 µM), the TB MIC - UIC (Mtb H37Rv [2]) was 1.95 µg/mL and the LORA MIC (NRP Mtb H37Rv cells) was 0.99 µg/mL.

For [O-][n+]1nc(NC2CCCC2)[n+]([O-])c2ccccc21 [SRI-012265], the CC50 at 72 h (in vitro) was 10.4 µg/mL (≈ 42.2 µM), the TB MIC - UIC (Mtb H37Rv [2]) was 3.58 µg/mL and the LORA MIC (NRP Mtb H37Rv cells) was 0.68 µg/mL.
